Test results taken from patent US8729115B2 (Cardiolynx AG, priority 2010, dated 2014).
Like-named read-outs stand apart in the source and are kept apart here.

Legend:
rat aortic ring segments = experiment: Isometric tension: vasodilation of rat aortic ring segments preconstricted with phenylephrine; type: cell-based; details: for EC50 / pD2-value (vasodilatory potency): concentration-relaxation curve; for EC50 / pD2-value (vasodilatory potency) / Vasodilatory potency (in words): phenylephrine-preconstricted rat aorta; for EC50: read-out: pD2-value (vasodilatory potency) (converted)
Method: Vasodilation of rat aortic ring segments preconstricted with phenylephrine, Example 3, Table 1. […].
After reaching a stable preconstriction of vascular tone, the vessels were dose-dependently vasodilated until the final tone at the highest added concentration of the vasodilator was reached. The vasodilators were added at half-logarithmic concentrations starting at 10^−8 M (=10 nanomolar). Vasodilatory potency was compared creating a concentration-relaxation curve. The data are based on experiments with aorta from at least 6 rats on 3 different days.

[1] = tested on: isolated rat cardiac mitochondria; experiment: ROS/RONS formation in isolated mitochondria (L-012 chemiluminescence)
From the text: Reactive oxygen and nitrogen species formation in response to in vitro challenge of isolated rat cardiac mitochondria based on reaction of the chemiluminescence dye L-012 (a luminal analogue), Example 4, Table 2. X-axis: compounds tested with concentration [μM]; y-axis: photons n per 30 sec of emission of chemiluminescence light (ECL).
Vascular oxidative stress is a well-known side effect of nitrate tolerance (an adverse condition that develops under chronic nitrate therapy). Therefore, the induction of reactive oxygen and nitrogen species formation in response to in vitro challenges with the test compounds was assessed in isolated mitochondria according to a published procedure [Daiber, A. et al., Mol Pharmacol 66 (2004), 1372-1382; Daiber, A. et al., Biochem Biophys Res Commun 338 (2005), 1865-1874; Daiber, A. et al., Mol Pharmacol 68 (2005), 579-588]. The assay is based on the reaction of the chemiluminescence dye L-012 (a luminol analogue) with reactive oxygen and nitrogen species (RONS, e.g. superoxide anion radicals, peroxynitrite anions or nitrogen dioxide radicals) and subsequent emission of chemiluminescence light (ECL). The signal is counted in photons/time (=counts/30 s). The data are based on experiments with cardiac mitochondria from at least 6 rats on 3 different days.

Beagle dogs = experiment: Effects on blood pressure in Beagle dogs; type: in vivo, dog
Method: Each group was administered three ascending doses separated by 4 wash out days providing 9 different treatments as shown in the following table:
The liquid was administered per gavage. […] The capsule was administered orally.
In this group the liquid was administered intravenously as a slow bolus injection.
Blood pressure was assessed for all treatments before dosing and 1, 2, 3, 4, 5, 6, 8, 12 and 24 h after dosing.

Wistar rats = experiment: Endothelial dysfunction, in vivo tolerance and cross-tolerance after 7 days treatment; set-up: species or system rat
Method: To assess the tendency of a given organic nitrate to induce in vivo tolerance and endothelial dysfunction, Wistar rats were treated for 7 days with placebo (solvent alone) or 3 increasing doses of the organic nitrate. […] Vascular function was assessed by isometric tension studies as described above. Acetylcholine (ACh) is an endothelium-dependent vasodilator whereas organic nitrates (e.g. compound 1 or nitroglycerin) are endothelium-independent vasodilators. Endothelial dysfunction will result in impaired ACh-dependent relaxation whereas nitrate tolerance and/or vascular dysfunction causes impaired compound 1 dependent or nitroglycerin dependent vasodilation.

[2] = 10-1000 μM, isolated mitochondria

| EC50 (rat aortic ring segments) [µM] | ROS formation, Mean (ECL signal) ([1]; rat, 10 μM) [counts/30 s] | ROS formation, Mean (ECL signal) ([1]; rat, 100 μM) [counts/30 s] | ROS formation, Mean (ECL signal) ([1]; rat, 1000 μM) [counts/30 s] | Molecule | Isometric tension, relaxation (Mean ± SEM) (rat aortic ring segments; Log [M] −3.5) [%] | Isometric tension, relaxation (Mean ± SEM) (rat aortic ring segments; Log [M] −4) [%] | Isometric tension, relaxation (Mean ± SEM) (rat aortic ring segments; Log [M] −4.5) [%] | Isometric tension, relaxation (Mean ± SEM) (rat aortic ring segments; Log [M] −5) [%] | Isometric tension, relaxation (Mean ± SEM) (rat aortic ring segments; Log [M] −5.5) [%] | Isometric tension, relaxation (Mean ± SEM) (rat aortic ring segments; Log [M] −6) [%] | Isometric tension, relaxation (Mean ± SEM) (rat aortic ring segments; Log [M] −6.5) [%] | Isometric tension, relaxation (Mean ± SEM) (rat aortic ring segments; Log [M] −7) [%] | Isometric tension, relaxation (Mean ± SEM) (rat aortic ring segments; Log [M] −7.5) [%] | Isometric tension, relaxation (Mean ± SEM) (rat aortic ring segments; Log [M] −3) [%] | pD2-value (vasodilatory potency) (rat aortic ring segments) | Vasodilatory potency (in words) (rat aortic ring segments) | Effect on RONS signal / in vitro oxidative stress (in words) [1, 2] | ROS formation, Mean (ECL signal) ([1]; Conc. 10 μM) [counts/30 s] | ROS formation, Mean (ECL signal) ([1]; Conc. 100 μM) [counts/30 s] | ROS formation, Mean (ECL signal) ([1]; Conc. 1000 μM) [counts/30 s] | further results |
| --- | --- | --- | --- | --- | --- | --- | --- | --- | --- | --- | --- | --- | --- | --- | --- | --- | --- | --- | --- | --- | --- |
| < 100 | 9007.83 | 4532.33 | 4386.00 | CCCCC(=O)N(Cc1ccc(-c2ccccc2-c2nnn[nH]2)cc1)C(C(=O)N(C)CCCCO[N+](=O)[O-])C(C)C [compound 2, (2R)-3-Methyl-2-(N-((2′-(1H-tetrazol-5-yl)biphenyl-4-yl)methyl)pentanamido)-butanoyl N-methyl-N-4-nitroxybutyl-amide] | 50.40 ± 7.89 | 31.38 ± 6.92 | 13.69 ± 3.68 | 8.61 ± 2.77 | 8.56 ± 2.18 | 7.43 ± 1.86 | 6.06 ± 1.69 | 4.61 ± 1.19 | 2.45 ± 0.93 | – | – | – | – | – | – | – | – |
| – | – | – | – | O=[N+]([O-])OCCCCO [HBN, 1-Hydroxy-4-butyl nitrate] | 95.69 ± 2.40 | 77.74 ± 3.73 | 55.15 ± 5.33 | 34.50 ± 4.63 | 15.21 ± 4.71 | 7.11 ± 2.87 | 3.24 ± 2.77 | 1.42 ± 2.55 | 1.84 ± 1.72 | 95.71 ± 1.27 | approximately 4.5 | intermediate vasodilatory potency | somewhat more pronounced effects on RONS formation | 5116.17 | 3005.75 | 10472.33 | – |
| < 1000 | 2971.58 | 2871.29 | 9878.96 | CCCCC(=O)N(Cc1ccc(-c2ccccc2-c2nnn[nH]2)cc1)[C@H](C(=O)O)C(C)C [compound 3, Valsartan] | 21.98 ± 3.75 | 9.43 ± 2.03 | 4.94 ± 2.65 | 0.29 ± 2.56 | −0.58 ± 3.84 | 1.05 ± 3.85 | 0.87 ± 2.97 | 1.64 ± 3.06 | 4.25 ± 2.13 | – | – | weak relaxing effects | – | – | – | – | – |
| – | – | – | – | O=[N+]([O-])O[C@H]1CO[C@H]2[C@@H]1OC[C@H]2O[N+](=O)[O-] [ISDN, Isosorbide dinitrate] | – | – | – | – | – | – | – | – | – | – | – | – | increases the RONS signal in a concentration-dependent fashion, although only slightly | 5718.33 | 6608.83 | 8744.83 | – |
| – | – | – | – | (2R)-3-Methyl-2-(N-((2′-(1-(2″-nitroxyethylaminocarbonyloxymethyl)-1H-tetrazol-5-yl)biphenyl-4-yl)methyl)pentanamido)butanoyl N-methyl-N-4-nitroxybutyl-amide 1A and the corresponding 2-(2″-nitroxyethylaminocarbonyloxymethyl)-2H-tetrazol-5-yl isomer 1B [compound 1] | 91.52 ± 3.83 | 88.20 ± 5.11 | 81.43 ± 6.54 | 59.97 ± 6.28 | 43.47 ± 5.88 | 27.39 ± 4.09 | 14.66 ± 2.59 | 8.52 ± 1.64 | 4.64 ± 0.93 | – | approximately 5.5 | – | – | 6820.33 | 4534.00 | 5088.33 | Blood pressure lowering effect (in words) (Beagle dogs; gavage, oral capsule or intravenous, ascending doses): two sequential lowerings of blood pressure; Duration of effect on blood pressure (Beagle dogs; overall): at least 10 hours; Blood pressure lowering observed up to (Beagle dogs; several animals): up to 24 hours; Vasodilatory potency (in words) (rat aortic ring segments; listed as Valsartan dinitrate 1): as potent as isosorbide dinitrate; Vasodilatory potency (in words) (rat aortic ring segments; listed as valsartan dinitrate 1): as active as isosorbide dinitrate; Effect on RONS signal / in vitro oxidative stress (in words) ([1]; 10-1000 μM, isolated mitochondria, listed as dinitrate 1): RONS signal is suppressed at higher concentrations; Effect on RONS signal / in vitro oxidative stress (in words) ([1]; 10-1000 μM, isolated mitochondria, listed as valsartan dinitrate 1): does not induce in vitro oxidative stress in isolated mitochondria; Adverse effects on endothelial or vascular function, in vivo tolerance or cross tolerance (Wistar rats; low and middle dose): did not show any significant adverse effects on endothelial or vascular function; Toxic effects (Wistar rats; up to the highest dose): not show any toxic effects |

| Molecule | EC50 (rat aortic ring segments) [µM] | ROS formation, Mean (ECL signal) ([1]; rat, 10 μM) [counts/30 s] | ROS formation, Mean (ECL signal) ([1]; rat, 100 μM) [counts/30 s] | ROS formation, Mean (ECL signal) ([1]; rat, 1000 μM) [counts/30 s] | Isometric tension, relaxation (Mean ± SEM) (rat aortic ring segments; Log [M] −3.5) [%] | Isometric tension, relaxation (Mean ± SEM) (rat aortic ring segments; Log [M] −4) [%] | Isometric tension, relaxation (Mean ± SEM) (rat aortic ring segments; Log [M] −4.5) [%] | Isometric tension, relaxation (Mean ± SEM) (rat aortic ring segments; Log [M] −5) [%] | Isometric tension, relaxation (Mean ± SEM) (rat aortic ring segments; Log [M] −5.5) [%] | Isometric tension, relaxation (Mean ± SEM) (rat aortic ring segments; Log [M] −6) [%] | Isometric tension, relaxation (Mean ± SEM) (rat aortic ring segments; Log [M] −6.5) [%] | Isometric tension, relaxation (Mean ± SEM) (rat aortic ring segments; Log [M] −7) [%] | Isometric tension, relaxation (Mean ± SEM) (rat aortic ring segments; Log [M] −7.5) [%] | Isometric tension, relaxation (Mean ± SEM) (rat aortic ring segments; Log [M] −3) [%] | pD2-value (vasodilatory potency) (rat aortic ring segments) | Vasodilatory potency (in words) (rat aortic ring segments) | Effect on RONS signal / in vitro oxidative stress (in words) [1, 2] | ROS formation, Mean (ECL signal) ([1]; Conc. 10 μM) [counts/30 s] | ROS formation, Mean (ECL signal) ([1]; Conc. 100 μM) [counts/30 s] | ROS formation, Mean (ECL signal) ([1]; Conc. 1000 μM) [counts/30 s] | further results |
| --- | --- | --- | --- | --- | --- | --- | --- | --- | --- | --- | --- | --- | --- | --- | --- | --- | --- | --- | --- | --- | --- |
| CNCCCCO[N+](=O)[O-].O=[N+]([O-])O [MNBAN, N-Methyl-N-(4-nitroxybutyl)ammonium nitrate] | ~31.6 | – | – | – | 88.56 ± 2.69 | 74.46 ± 4.13 | 50.81 ± 6.88 | 30.56 ± 7.29 | 14.85 ± 5.75 | 8.33 ± 4.85 | 5.04 ± 3.29 | 3.24 ± 2.80 | 1.72 ± 1.50 | 95.84 ± 2.26 | – | intermediate vasodilatory potency | – | – | – | – | Effect on RONS signal / in vitro oxidative stress (in words) [1]: somewhat more pronounced effects on RONS formation |
